Data taken from US7157487B2, “Vla-4 inhibitors” (Daiichi Pharmaceutical Co., Ltd., priority 2000, dated 2007).

Target: T1, integrins haα4 and β1 (VLA-4) expressed on CHO cells (Homo sapiens, UniProt P05556+P13612)
T1 construct: expressed in transfected cells; host or cells: CHO cells
Assay: In vitro Evaluation Test (1): binding of Eu3+-hVCAM-1 D1D7-IgG to CHO cells expressing integrins α4 and β1
Settings: inhibition of Eu3+-hVCAM-1 D1D7-IgG binding to CHO cells expressing α4β1; Ki calculated from IC50
Procedure: CHO cells forcedly expressed by the transduction of integrins haα4 and β1 were seeded in a Coster 3599 plate (3×10^4 cells/100 μl/well) and they were cultured for 2 days. After the medium was washed with buffer A* twice, 50 μl/well of Eu^3+-hVCAM-1 D1D7-IgG diluted to […] with an assay buffer ** was added. To the resulting well was added 50 μl/well of a test compound diluted with 2% DMS0-assay buffer (in the presence or absence of 6% human serum albumin) (to a well subjected to Scatchard analysis was added a solution diluted in another manner). After stirring for 5 minutes on a plate mixer, the plate was allowed to stand at room temperature for 1 hour. Then, the plate was washed four times with the buffer A and added with 100 μl/well of an enhancement reagent (DELFIA). The plate was shaken for 5 minutes on a plate mixer, followed by measurement of fluorescence intensity by a time-resolved fluorometer (DELFIA Wallac). From the binding ratio available by the following calculation formula: ((FT−FNS)−(FI−FNS))/(FT−FNS)×100, the IC50 (concentration inhibiting 50% of binding of CHO cells with hVCAM-1 D1D7-IgG) of the test compound was determined. In the above formula, FT means the fluorescence intensity of the well free of the test compound, FNS means the fluorescence intensity of the well free of the test compound and anti-hα4 antibody (SG/73), and FI means the fluorescence intensity of the well containing the test compound. The Kd indicating the binding strength and Bmax (maximum binding) were estimated within a range of 0.06 to 20 nM in accordance with the Scatchard analysis method.
The value Ki was calculated based on:
[formula] ((L) means a ligand concentration). (* buffer A: 25 mM HEPES (pH 7.5), 150 mM NaCl, 1 mM Ca^2+, 1 MM Mg^2+, 4 mM Mn^2+; ** assay buffer: 25 mM HEPES (pH 7.5), 150 mM NaCl, 1 mM Ca^2+, 1 mM Mg^2+, 4 mM Mn^2+, 0.1% BSA, 20 μM DTPA, with/without 6% ALBUMIN, HUMAN SERUM (C/N A-1653, SIGMA)) In vitro Evaluation Test (2)

T1 sequence (P13612 34-1032): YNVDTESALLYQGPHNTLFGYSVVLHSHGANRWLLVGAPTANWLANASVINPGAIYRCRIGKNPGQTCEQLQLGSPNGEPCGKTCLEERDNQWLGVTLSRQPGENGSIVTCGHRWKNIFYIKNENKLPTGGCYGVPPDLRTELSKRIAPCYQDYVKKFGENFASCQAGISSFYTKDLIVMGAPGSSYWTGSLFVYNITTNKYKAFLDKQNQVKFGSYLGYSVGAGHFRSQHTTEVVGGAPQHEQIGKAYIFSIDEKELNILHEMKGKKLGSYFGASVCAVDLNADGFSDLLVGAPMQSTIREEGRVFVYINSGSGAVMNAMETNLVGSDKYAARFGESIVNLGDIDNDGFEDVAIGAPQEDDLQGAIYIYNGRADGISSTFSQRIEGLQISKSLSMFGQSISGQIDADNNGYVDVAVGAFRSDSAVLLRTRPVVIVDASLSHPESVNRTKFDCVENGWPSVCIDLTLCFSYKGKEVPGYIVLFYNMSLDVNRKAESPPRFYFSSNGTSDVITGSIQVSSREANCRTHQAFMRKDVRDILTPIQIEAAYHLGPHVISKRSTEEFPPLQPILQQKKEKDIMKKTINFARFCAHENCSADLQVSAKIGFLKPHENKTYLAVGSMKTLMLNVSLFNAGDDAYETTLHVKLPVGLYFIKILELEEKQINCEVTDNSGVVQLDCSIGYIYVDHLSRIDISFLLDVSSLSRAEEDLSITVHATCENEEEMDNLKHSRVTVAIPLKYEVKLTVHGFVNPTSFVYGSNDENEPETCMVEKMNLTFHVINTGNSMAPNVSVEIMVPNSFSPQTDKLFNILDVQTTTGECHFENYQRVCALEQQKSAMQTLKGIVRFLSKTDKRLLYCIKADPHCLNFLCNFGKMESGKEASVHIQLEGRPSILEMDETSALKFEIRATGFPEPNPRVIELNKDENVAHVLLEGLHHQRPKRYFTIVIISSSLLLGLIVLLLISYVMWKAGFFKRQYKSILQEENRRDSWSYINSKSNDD
T1 sequence (P05556 21-798): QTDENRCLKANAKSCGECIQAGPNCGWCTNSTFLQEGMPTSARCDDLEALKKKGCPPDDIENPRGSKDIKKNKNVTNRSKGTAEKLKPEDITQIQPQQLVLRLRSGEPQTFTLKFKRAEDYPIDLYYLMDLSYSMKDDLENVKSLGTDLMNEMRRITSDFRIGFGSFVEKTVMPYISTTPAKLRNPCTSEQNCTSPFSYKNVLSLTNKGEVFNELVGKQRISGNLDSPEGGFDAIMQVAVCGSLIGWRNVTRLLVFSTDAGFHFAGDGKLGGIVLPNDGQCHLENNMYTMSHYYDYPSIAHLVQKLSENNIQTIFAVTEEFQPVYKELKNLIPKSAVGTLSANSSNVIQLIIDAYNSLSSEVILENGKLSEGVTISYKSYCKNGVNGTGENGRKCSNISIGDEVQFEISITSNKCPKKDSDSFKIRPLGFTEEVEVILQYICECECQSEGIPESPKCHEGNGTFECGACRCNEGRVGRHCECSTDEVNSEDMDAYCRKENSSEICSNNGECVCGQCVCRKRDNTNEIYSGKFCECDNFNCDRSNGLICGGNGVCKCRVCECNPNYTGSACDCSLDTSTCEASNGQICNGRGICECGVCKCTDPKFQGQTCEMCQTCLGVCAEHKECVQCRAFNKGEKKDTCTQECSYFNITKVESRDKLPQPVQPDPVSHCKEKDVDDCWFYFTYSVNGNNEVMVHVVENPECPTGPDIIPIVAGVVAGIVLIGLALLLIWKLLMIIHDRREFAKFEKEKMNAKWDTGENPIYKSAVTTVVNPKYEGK

| Ki [nM] | Compound |
| --- | --- |
| 21 | Cn1cc(-c2nc3ccc(CC(=O)N4C[C@@H](F)C[C@H]4CN[C@H]4CC[C@H](C(=O)O)CC4)c(F)c3o2)c2ccccc21 [Example 108, trans-4-(N-(1-((7-Fluoro-2-(1-methyl-3-indolyl)-6-benzoxazolyl)acetyl)-(4S)-fluoro-(2S)-pyrrolidinylmethyl)amino)cyclohexanecarboxylic acid] |
| 25 | Cn1cc(C(=O)Nc2cc(F)c(CC(=O)N3C[C@@H](F)C[C@H]3CCN3CCC(C(=O)O)CC3)cc2Cl)c2ccccc21 [Example 109, 1-(2-(1-((5-Chloro-2-fluoro-4-((1-methyl-3-indolylcarbonyl)amino)phenyl)acetyl)-(4S)-fluoro-(2R)-pyrrolidinyl)ethyl)-4-piperidinecarboxylic acid] |
| 7 | Cc1ccc(F)cc1Nc1nc2ccc(CC(=O)N3C[C@@H](F)C[C@H]3C(=O)N[C@H]3CC[C@H](C(=O)O)CC3)c(F)c2o1 [Example 110, trans-4-(((4S)-Fluoro-1-(2-(5-fluoro-2-methylphenylamino)-7-fluoro-6-benzoxazolylacetyl)-(2S)-pyrrolidinyl)carbonylamino)cyclohexanecarboxylic acid] |
| 2.6 | Cn1cc(C(=O)Nc2cc(F)c(CC(=O)N3C[C@@H](F)C[C@H]3C(=O)N[C@H]3CC[C@H](C(=O)O)CC3)cc2Cl)c2ccccc21 [Example 111, trans-4-((1-(5-Chloro-2-fluoro-4-((1-methyl-3-indolylcarbonyl)amino)phenylacetyl)-(4S)-fluoro-(2S)-pyrrolidinyl)carbonylamino)cyclohexanecarboxylic acid] |
| 6.5 | O=C(Nc1ccc(CC(=O)N2C[C@@H](F)C[C@H]2C(=O)N[C@H]2CC[C@H](C(=O)O)CC2)cc1Cl)c1nccc2ccccc12 [Example 112, trans-4-((1-(3-Chloro-4-((1-isoquinolinylcarbonyl)amino)phenylacetyl)-(4S)-fluoro-(2S)-pyrrolidinyl)carbonylamino)cyclohexanecarboxylic acid] |
| 5.9 | Cn1cc(C(=O)Nc2cc(F)c(CC(=O)N3C[C@@H](OC4CCCCC4)C[C@H]3CO[C@H]3CC[C@H](C(=O)O)CC3)cc2Cl)c2ccccc21 [Example 119, trans-4-(1-((5-Chloro-2-fluoro-4-(1-methyl-3-indolylcarbonylamino)phenyl)acetyl)-(4S)-cyclohexyloxy-(2S)-pyrrolidinylmethoxy)cyclohexanecarboxylic acid] |
| 1.9 | CN(C)C(=O)CO[C@H]1C[C@@H](CO[C@H]2CC[C@H](C(=O)O)CC2)N(C(=O)Cc2cc(Cl)c(NC(=O)c3cn(C)c4ccccc34)cc2F)C1 [Example 120, trans-4-(1-((5-Chloro-2-fluoro-4-(1-methyl-3-indolylcarbonylamino)phenyl)acetyl)-(4S)-dimethylcarbamoylmethoxy-(2S)-pyrrolidinylmethoxy)-1-cyclohexanecarboxylic acid] |
| 29 | Cc1ccccc1Nc1nc2ccc(CC(=O)N3C[C@H](O)C[C@H]3CO[C@H]3CC[C@H](C(=O)O)CC3)cc2o1 [Example 122, trans-4-((4R)-Hydroxy-1-((2-(2-methylphenylamino)-6-benzoxazolyl)acetyl)-(2S)-pyrrolidinylmethoxy)cyclohexanecarboxylic acid] |
| 1.4 | Cc1ccccc1Nc1nc2ccc(CC(=O)N3C[C@@H](S(=O)(=O)c4ccccc4)C[C@H]3CO[C@H]3CC[C@H](C(=O)O)CC3)cc2o1 [Example 124, trans-4-(1-((2-(2-Methylphenylamino)-6-benzoxazolyl)acetyl)-(4S)-phenylsulfonyl-(2S)-pyrrolidinylmethoxy)cyclohexanecarboxylic acid] |
| 2 | CS[C@H]1C[C@@H](CO[C@H]2CC[C@H](C(=O)O)CC2)N(C(=O)Cc2ccc3nc(Nc4cc(F)ccc4C)oc3c2F)C1 [Example 126, trans-4-(1-((2-(5-Fluoro-2-methylphenylamino)-7-fluoro-6-benzoxazolyl)acetyl)-(4S)-methylthio-(2S)-pyrrolidinylmethoxy)cyclohexanecarboxylic acid] |
| 9.7 | CS[C@H]1C[C@@H](CO[C@H]2CC[C@H](C(=O)O)CC2)N(C(=O)Cc2cc(Cl)c(NC(=O)c3nn(C)c4ccccc34)cc2F)C1 [Example 127, trans-4-(1-((5-Chloro2-fluoro-4-((1-methyl-3-indazolylcarbonyl)amino)phenyl)acetyl)-(4S)-methylthio-(2S)-pyrrolidinylmethoxy)cyclohexanecarboxylic acid] |
| 2.7 | Cn1cc(C(=O)Nc2cc(F)c(CC(=O)N3C[C@@H](S(C)(=O)=O)C[C@H]3CO[C@H]3CC[C@H](C(=O)O)CC3)cc2Cl)c2ccccc21 [Example 128, trans-4-(1-((5-Chloro-2-fluoro-4-((1-methyl-3-indolylcarbonyl)amino)phenyl)acetyl)-(4S)-methanesulfonyl-(2S)-pyrrolidinylmethoxy)cyclohexanecarboxylic acid] |
| 1.5 | Cn1nc(C(=O)Nc2cc(F)c(CC(=O)N3C[C@@H](S(C)(=O)=O)C[C@H]3CO[C@H]3CC[C@H](C(=O)O)CC3)cc2Cl)c2ccccc21 [Example 129, trans-4-(1-((5-Chloro-2-fluoro-4-((1-methyl-3-indazolylcarbonyl)amino)phenyl)acetyl)-(4S)-methanesulfonyl-(2S)-pyrrolidinylmethoxy)cyclohexanecarboxylic acid] |
| 17 | Cn1cc(-c2nc3ccc(CC(=O)N4CCC[C@H]4CO[C@H]4CC[C@H](C(=O)O)CC4)cc3o2)c2ccc(F)cc21 [Example 131, trans-4-(1-((2-(6-Fluoro-1-methyl-3-indolyl)-6-benzoxazolyl)acetyl)-(2S)-pyrrolidinylmethoxy)-1-cyclohexanecarboxylic acid] |
| 22 | C[C@H]1C[C@@H](CO[C@H]2CC[C@H](C(=O)O)CC2)N(C(=O)Cc2cc(Cl)c(NC(=O)c3cn(C)c4ccccc34)cc2F)C1 [Example 133, trans-4-(1-(5-Chloro-2-fluoro-4-((1-methyl-1H-3-indolylcarbonyl)amino)phenylacetyl)-(4S)-methyl-(2S)-pyrrolidinylmethoxy)cyclohexanecarboxylic acid] |
| 3.1 | Cc1ccc(F)cc1Nc1nc2ccc(CC(=O)N3C[C@@H](C)C[C@H]3CO[C@H]3CC[C@H](C(=O)O)CC3)c(F)c2o1 [Example 134] |
| 19 | C[C@H]1C[C@@H](CO[C@H]2CC[C@H](C(=O)O)CC2)N(C(=O)Cc2cc(Cl)c(NC(=O)c3nn(C)c4ccccc34)cc2F)C1 [Example 135, trans-4-(1-(5-Chloro-2-fluoro-4-((1-methyl-1H-3-indazolylcarbonyl)amino)phenylacetyl)-(4S)-methyl-(2S)-pyrrolidinylmethoxy)cyclohexanecarboxylic acid] |
| 5.6 | Cc1ccc(F)cc1Nc1nc2ccc(CC(=O)N3[C@H](CO[C@H]4CC[C@H](C(=O)O)CC4)CC[C@@H]3C)c(F)c2o1 [Example 137, trans-4-(1-((2-(5-Fluoro-2-methylphenylamino)-7-fluoro-6-benzoxazolyl)acetyl)-(5S)-methyl-(2S)-pyrrolidinylmethoxy)cyclohexanecarboxylic acid] |
| 1.8 | COC[C@H]1C[C@@H](CO[C@H]2CC[C@H](C(=O)O)CC2)N(C(=O)Cc2ccc3nc(Nc4cc(F)ccc4C)oc3c2F)C1 [Example 140, trans-4-(1-(7-Fluoro-2-(5-fluoro-2-methylphenylamino)-6-benzoxazolylacetyl)-(4S)-methoxymethyl-(2S)-pyrrolidinylmethoxy)cyclohexanecarboxylic acid] |
